Experimental data published in BindingDB's records for doi:10.1074/jbc.M004512200 (Schering-Plough Research Institute, 2000).
“And” between values parts separate entries of the source, which are not always exact repeats. Equal values may be shown once.

Legend:
[1] = biological target: T1, Leukotriene B4 receptor 2 (Homo sapiens, UniProt Q9NPC1)
T1 sequence (Q9NPC1 whole entry): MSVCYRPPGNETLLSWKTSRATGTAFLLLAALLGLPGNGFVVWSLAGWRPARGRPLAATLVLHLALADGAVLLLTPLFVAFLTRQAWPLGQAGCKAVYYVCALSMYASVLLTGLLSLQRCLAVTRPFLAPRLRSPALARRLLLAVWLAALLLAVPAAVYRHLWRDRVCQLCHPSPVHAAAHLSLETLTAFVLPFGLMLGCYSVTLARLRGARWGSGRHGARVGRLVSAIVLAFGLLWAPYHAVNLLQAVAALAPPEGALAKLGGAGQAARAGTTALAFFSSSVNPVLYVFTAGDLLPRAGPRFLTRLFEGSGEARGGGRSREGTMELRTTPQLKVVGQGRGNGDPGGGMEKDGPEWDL

[2] = biological target: Leukotriene B4 receptor 1 (Homo sapiens, UniProt Q15722)
Leukotriene B4 receptor 1, sequence (Q15722 whole entry): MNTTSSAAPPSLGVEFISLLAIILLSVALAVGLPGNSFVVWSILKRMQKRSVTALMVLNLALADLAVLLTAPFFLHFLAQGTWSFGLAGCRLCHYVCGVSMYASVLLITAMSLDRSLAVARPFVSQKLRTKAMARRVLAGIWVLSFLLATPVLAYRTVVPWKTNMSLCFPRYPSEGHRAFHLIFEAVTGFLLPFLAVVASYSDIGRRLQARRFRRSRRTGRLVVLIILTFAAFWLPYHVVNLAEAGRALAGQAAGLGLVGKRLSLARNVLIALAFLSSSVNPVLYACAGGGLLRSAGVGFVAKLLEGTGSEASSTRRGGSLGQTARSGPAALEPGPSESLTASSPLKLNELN

Structure (SMILES) | Ki [1] | Ki [2]
CCCCCC=CCC=CCC=CCC#CCCCC(=O)O [NSC_1777] | 1 µM | –
CC/C=C/C=C/CCC=CC=CC=CC(SCC(NC(=O)CCC(N)C(=O)O)C(=O)NCC(=O)O)C(O)CCCC(=O)O (centres undefined) [LTC5] | 3 µM | > 10 µM
CCCCCCCCC=CC=CC=CC(SCC(N)C(=O)NCC(=O)O)C(O)CCCC(=O)O (centres undefined) [LTD3] | 1 µM | > 10 µM
CCCCC/C=C\C/C=C\CC=CC=CC(=O)CCCC(=O)O [ETE-5-Oxo] | > 1 µM | > 1 µM
CCCCCC(O)C=CC=CC=CC=CC(O)C(O)CCCC(=O)O (centres undefined) [NSC_5280914] | 1.4 µM | 1.44 µM
CC/C=C/CC=CCC=CC=CC=CC1OC1CCCC(=O)OC (centres undefined) [LTA5-ME] | – | > 10 µM
CCCCCC=CCC=CC=CC=CC(SCC(NC(=O)CCC(N)C(=O)O)C(=O)NCC(=O)O)C(O)CCCC(=O)O (centres undefined) [CAS_5283121] | > 9 µM | > 1.9 µM
CCCCCC=CCC=CC=CC(O)CC=CCCCC(=O)O (centres undefined) [NSC_5283163] | > 1 µM | > 30 µM
O=C(O)CCCC=CCC=CCC=CCC=CCCCCCO [CAS_5283157] | > 1 µM | > 10 µM
CCCCCCC=CC(=O)C=CC=CCC=CCCCC(=O)O [NSC_5283162] | 0.155 µM | > 1 µM
CCCCCCCCC=CC=CC=CC(SCC(N)C(=O)O)C(O)CCCC(=O)O (centres undefined) [LTE3] | 4 µM | > 10 µM
CCCCC/C=C\C/C=C\C/C=C\C=C\C(O)CCCC(=O)O [HETE-5(S)] | 1 µM and 3 µM | 1 µM and > 10 µM
CCCCCCCCC=CC=CC=CC1OC1CCCC(=O)OC (centres undefined) [LTA3-ME] | > 10 µM | 5 µM
COc1cc(C(=O)NS(=O)(=O)c2ccccc2C)ccc1Cc1cn(C)c2ccc(NC(=O)OC3CCCC3)cc12 [cyclopentyl 3-(2-methoxy-4-((o-tolylsulfonyl)carbamoyl)benzyl)-1-methylindole-5-carbamate] | > 10 µM | 7.12 µM
CCC=CCC=CCC(O)C=CC=CC=CC(O)CCCC(=O)O (centres undefined) [NSC_5283125] | 0.0094 µM | 0.0037 µM
CCCCCC=CCC=CC=CC=CC(SCC(NC(=O)CCC(N)C(=O)O)C(=O)O)C(O)CCCC(=O)O (centres undefined) [NSC_5283124] | 6 µM | 5.7 µM
CCCCC/C=C\C\C=C/C=C/C=C/[C@@H](SC[C@H](N)C(=O)NCC(=O)O)[C@@H](O)CCCC(=O)O [5S-hydroxy-6R-(S-cysteinylglycinyl)-7E,9E,11E,14Z-eicosatetraenoic acid] | > 10 µM | 4 µM
CCCCCC=CCC=CC=CC=CC1OC1CCCC(=O)OC (centres undefined) [NSC_126534] | > 10 µM | > 10 µM
O=C(O)CCC[C@H](O)\C=C/C=C/C=C/[C@H](O)C/C=C\CCCCCO [LTB4-20-hydroxy] | 0.041 µM | 0.00054 µM
CC/C=C/CC=CCC=CC=CC=CC(SCC(N)C(=O)NCC(=O)O)C(O)CCCC(=O)O (centres undefined) [LTD5] | – | > 10 µM
CC(C)(O)c1ccccc1CCC(S)c1cccc(C=Cc2ccc3ccc(Cl)cc3n2)c1 (centres undefined) [NSC_5311297] | > 10 µM | > 10 µM
CCCCC[C@@H](O)/C=C/C=C\C/C=C\C/C=C\CCCC(=O)O | 0.173 µM | > 18 µM
CCCCCCCCC=CC=CC=CC(SCC(NC(=O)CCC(N)C(=O)O)C(=O)NCC(=O)O)C(O)CCCC(=O)O (centres undefined) [LTC3] | > 4 µM | > 14 µM
CCCCC/C=C\C[C@@H](O)/C=C/C=C/C=C\[C@@H](O)CCCC(=O)NCCCN [LTB4-3-aminopropylamide] | 1.23 µM | 0.0051 µM
CCCCC/C=C\C\C=C/C=C/C=C/[C@@H](SC[C@H](N)C(=O)O)[C@@H](O)CCCC(=O)O [(5S-(5R*,6S*(S*),7E,9E,11Z,14Z))-6-((2-Amino-2-carboxyethyl)thio)-5-hydroxy-7,9,11,14-eicosatetraenoic acid] | 6 µM | 2.37 µM
CCCCC/C=C\C[C@H](O)/C=C/c1cccc(C[C@H](O)CCCCO)n1 [(5R)-6-[6-[(1E,3S,5Z)-3-hydroxyundeca-1,5-dienyl]pyridin-2-yl]hexane-1,5-diol] | 5.43 µM | 0.025 µM
